Here are results for one compound from patent US10363261B2, “Enolase inhibitors and methods of treatment therewith” (Board of Regents, The University of Texas System, priority 2015, dated 2019).

Molecules are shown by their SMILES. Values joined by “and” are separate entries in the source; they are usually repeats but may differ in a detail not shown here. Equal values may be shown once.

The subject of one assay is D423 overexpressing ENO2. Description: Sensitivity of D423 cells with re-expression of ENO2. It counts as cell-based, human. The procedure:
Total cell number was quantified by Hoechst 33342 (Cat# H3570; Invitrogen). Apoptotic cells were counted by staining with propidium iodide. Apoptotic cells become permeable to propidium iodide while live cells are not stained. On the day of apoptosis survey, old media was removed and each well was filled to 100 μl with fresh media. Hoechst and propidium iodide were mixed in 1:100 PBS and 10 μl of the mixture was added in each well gently without touching the cells for a final dilution of 1:1000 from stock. Plates were then incubated at 37° C. for 2 hours. Image capture and quantification was done by High Content Screening System—Operetta (Perkin Elmer).
Cell proliferation of glioma cell lines was assayed either through crystal violet staining or by live-cell confluence measurements with the IncuCyte (Essen BioScience). […] Dye extraction was performed using 10% acetic acid solution, and absorbance was read at 595 nm. Apoptotic cells were counted by staining with YO-PRO®-1 Iodide (491/509, Life Technologies, Y3603). […] Total cell number was quantified by Hoechst 33342 (Cat# H3570 Invitrogen). […] Image capture and quantification was done by High Content Screening System—Operetta (Perkin Elmer). ATP content was measured with the luciferase/luciferin CellTiter-Glo® assay. […]

The target in assay [1] is T1, ENO2 (Homo sapiens, UniProt P09104). Description: Thermal shift assay on recombinant human ENO2 expressed in E. coli. Set-up: DNA encoding full length Human Enolase 2 was cloned into pJL-H6 plasmid expression vector; His tag (pJL-H6) (C); made in house; host or cells: E. coli BL21 (DE3). It counts as binding. The following applies: 10 μM inhibitor. How it is done:
(§1) Thermal shift assays were conducted as described in Martinez Molina, et al. (2013), on lysates of D423 cell line overexpressing ENO1 and ENO2, on recombinant human ENO1 and ENO2 purified from E. coli as well as intact D423 ENO2 overexpressing glioma cells. […] Lysates were diluted (1:100) in Enolase enzymatic activity buffer as mentioned above. Diluted lysates were treated with SF2312, PhAH or vehicle and heated on a C1000 Thermal cycler (Bio-rad) with a linear temperature gradient (50 to 82.5° C. in 2.5° C. increments) for 3 minutes (FIG. 24). The lysates were then centrifuged at 20,000 g for 10 minutes. Supernatant and pellet were then separated and NuPage LDS Sample buffer (Life Technologies # NP0007) was added. Western Blots were performed as described previously (Muller, et al., 2012). The following antibodies were used: ENO1 (Abcam # ab155102), ENO2 (Dako # M087301-2), Vinculin (EMD Millipore #05-386), pan-ENO (Santa Cruz Biotechnology, sc-7455) and TPI (Proteintech #10713-1-AP). Recombinant human ENO2: The same procedure was carried out on purified recombinant ENO2 from E. coli, utilizing the purified protein generated for the X-ray crystallography studies. […]

The target of the next assay is T2, enolase 2 (Homo sapiens, UniProt P09104).
T2 construct: expressed in transfected cells; host or cells: D423 (D423-MG) human glioma cells, clone pCMV ENO2 1x
T2 sequence (P09104 whole entry): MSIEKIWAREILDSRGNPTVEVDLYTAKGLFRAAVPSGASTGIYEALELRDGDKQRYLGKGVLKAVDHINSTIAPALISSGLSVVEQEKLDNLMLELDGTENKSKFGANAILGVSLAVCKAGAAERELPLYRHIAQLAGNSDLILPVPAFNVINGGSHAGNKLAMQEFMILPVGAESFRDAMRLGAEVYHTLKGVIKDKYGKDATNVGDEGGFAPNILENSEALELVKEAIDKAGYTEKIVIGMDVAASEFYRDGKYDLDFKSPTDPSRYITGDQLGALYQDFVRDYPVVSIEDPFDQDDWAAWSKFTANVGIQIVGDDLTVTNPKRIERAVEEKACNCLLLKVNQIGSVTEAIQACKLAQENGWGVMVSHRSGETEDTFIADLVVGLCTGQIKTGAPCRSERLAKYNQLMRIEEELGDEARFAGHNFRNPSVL
Description: Thermal shift assay in intact glioma cells overexpressing ENO2 (D423 ENO2). It counts as cell-based. The following applies: 100 μM inhibitor. How it is done:
as §1

Assay [2] deals with T1, ENO2. Briefly: Ligand-induced thermal shift assay on cell lysates (D423 overexpressing ENO2). Set-up: expressed in transfected cells; host or cells: D423 (D423-MG) human glioma cells, clone pCMV ENO2 1x. It counts as binding.
Description: Lysates: The lysates were prepared in 20 mM Tris-HCl, 1 mM EDTA and 1 mM β-mercaptoethanol at pH 7.4 and homogenized using a Polytron homogenizer three times for a period of 10 s followed by sonication, after which the lysates were cleared by centrifugation at 20,000 g for 10 minutes. Lysates were diluted (1:100) in Enolase enzymatic activity buffer as mentioned above. […] The lysates were then centrifuged at 20,000 g for 10 minutes. Supernatant and pellet were then separated and NuPage LDS Sample buffer (Life Technologies # NP0007) was added.
As an additional test of SF2312 binding to the enolase protein, ligand-induced thermal shift assays were performed on cell lysates under the same conditions as we performed the enzymatic assay (Martinez Molina, et al., 2013). The principal of the assay is that heat-denatured proteins precipitate out of solution when their hydrophobic core is exposed. As a result, heat denatured proteins disappear from the lysate after centrifugation, whereas native properly folded proteins remain in solution. The levels of specific proteins in the supernatant, such as non-denatured proteins, are followed by immunoblotting as a function of increasing temperature.
For assay [3], the target named is T1, ENO2. Description: Enolase enzymatic activity and Michaelis-Menten kinetic analysis, ENO2.
Description: Human ENO1 and ENO2 were overexpressed in the human D423 cell line and used for enzymatic assays. […] Enzymatic activity was measured by monitoring fluorescence of NADH at 340 nm Exitation/460 nm emission using an Lactate dehydrogenase/Pyruvate kinase linked assay which links the formation of PEP to the oxidation of NADH to NAD+, as we have described in published work (Muller et al., 2012). Enzymatic activity was normalized to that in the absence of the inhibitor (set to 1) and plotted as function of inhibitor concentration.
The Michaelis-Menten Kinetic analysis was performed using standard methods in the field such as those taught by Voet and Voet, 2011. The enzymatic activity of Enolase 1 or 2 v was determine over a concentration range of 10 mM to 0.5 mM 2-PG [S], in the presence of increasing concentrations of inhibitor [I].
Native lysates of mouse tissues and human cell lines were prepared using 20 mM Tris HCl, 1 mM EDTA, and 1 mM β-mercaptoethanol at pH 7.4 and homogenized using a Polytron homogenizer three times for a period of 10 s followed by sonication, after which the lysates were cleared by centrifugation at 20,000 g for 10 minutes. Enolase activity was measured using two different methods, either by a fluorometric NADH-linked assay or a direct spectrophotometric assay via formation of PEP. In the fluorescent assay, enolase activity was measured via NADH oxidation in a pyruvate kinase-lactate dehydrogenase coupled assay as previously described (Muller, et al., 2012). The assay is conducted in 10 mM KCl, 5 mM MgSO4, 100 mM triethanolamine at pH 7.4, with 400 μM NADH and 2 mM ADP. 2-Phosphoglycerate (2-PGA), pyruvate kinase (PK) and lactate dehydrogenase (LDH) are provided in excess, with conversion of 2-PGA to PEP by enolase being rate limiting. PEP (with ADP) is substrate of PK; pyruvate formed by this reaction is linked to NADH oxidation by LDH. Enolase activity is determined by measuring oxidation of NADH fluorescently by excitation at 340 nm and emission at 460 nm. The substrate concentration, if not otherwise indicated, was 5 mM 2-PGA. Fluorescence was measured using Omega Fluorescence Plate Reader (BMG Labtech). Alternatively, Enolase activity was measured directly by the appearance of PEP from 2-PGA via absorption at 240 nm (Marangos, et al., 1978). The assay medium was the same, except that all the auxiliary reagents (PK/LDH, NADH, ADP) are omitted. Both assays were conducted in a 96-well plated format with the direct assay performed in UV-transmissible plates.
For assay [4], the system named is conversion of 13C-glucose to 13C-lactate in D423 ENO1-deleted glioma cells. Briefly: 13C-NMR tracing of uniformly labeled 13C-glucose to 13C-lactate. The following applies: 48 hours, 10 mM 13C-uniformly labeled glucose.
Description: Glucose labeled with heavy, non-radioactive, ^13C at carbon C-1 and ^13C at all carbon atoms were purchased from Cambridge Isotopes (CLM-420-1 and CLM-1396, respectively). Glucose free DMEM media was supplemented with 10 mM ^13C-1 or ^13C-all labeled Glucose. NMR metabolic tracing was performed by substituting conventional DMEM medium with glucose free DMEM medium, to which ^13C-1 glucose (Cambridge Isotopes) was supplemented at 10 mM. […] After 4 days, conditioned media was extracted with 80% methanol at −80° C., lyophilized and resuspended in D2O. Proton-decoupled ^13C NMR spectra were acquired using a 500 MHZ Bruker instrument in the M. D. Anderson NMR core facility.
The target of a further assay is human ENO1 (Homo sapiens, UniProt P06733). Briefly: Enolase enzymatic activity, NADH-linked pyruvate kinase/lactate dehydrogenase fluorescence assay, ENO1.
human ENO1, sequence (P06733 whole entry): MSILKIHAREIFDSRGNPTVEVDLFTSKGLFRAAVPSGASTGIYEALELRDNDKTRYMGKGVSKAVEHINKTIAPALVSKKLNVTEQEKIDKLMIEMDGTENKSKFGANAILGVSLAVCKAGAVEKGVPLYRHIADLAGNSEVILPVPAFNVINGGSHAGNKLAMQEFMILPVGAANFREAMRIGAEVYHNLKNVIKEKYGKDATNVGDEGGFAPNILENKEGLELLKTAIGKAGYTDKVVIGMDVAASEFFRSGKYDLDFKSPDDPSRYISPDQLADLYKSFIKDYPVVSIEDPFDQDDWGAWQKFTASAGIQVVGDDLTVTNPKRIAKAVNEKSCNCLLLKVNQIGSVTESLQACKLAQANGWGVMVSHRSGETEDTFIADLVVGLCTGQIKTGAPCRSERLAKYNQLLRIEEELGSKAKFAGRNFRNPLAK

T1 sequence (P09104 whole entry): as the sequence (P09104 whole entry) above
Description for human ENO1: Human ENO1 and ENO2 were overexpressed in the human D423 cell line and used for enzymatic assays. Inhibitors (PhAH, SF2312 and Deoxy-SF2312, Hex, Hepta, Pom-Hex, and Fosmidomycin) were incubated with the enzyme prior to addition of 5 mM 2-PG substrate. Enzymatic activity was measured by monitoring fluorescence of NADH at 340 nm Exitation/460 nm emission using an Lactate dehydrogenase/Pyruvate kinase linked assay which links the formation of PEP to the oxidation of NADH to NAD+, as we have described in published work (Muller et al., 2012). Enzymatic activity was normalized to that in the absence of the inhibitor (set to 1) and plotted as function of inhibitor concentration.
Enolase activity was measured using two different methods, either by a fluorometric NADH-linked assay or a direct spectrophotometric assay via formation of PEP. In the fluorescent assay, enolase activity was measured via NADH oxidation in a pyruvate kinase-lactate dehydrogenase coupled assay as previously described (Muller, et al., 2012). The assay is conducted in 10 mM KCl, 5 mM MgSO4, 100 mM triethanolamine at pH 7.4, with 400 μM NADH and 2 mM ADP. 2-Phosphoglycerate (2-PGA), pyruvate kinase (PK) and lactate dehydrogenase (LDH) are provided in excess, with conversion of 2-PGA to PEP by enolase being rate limiting. PEP (with ADP) is substrate of PK; pyruvate formed by this reaction is linked to NADH oxidation by LDH. Enolase activity is determined by measuring oxidation of NADH fluorescently by excitation at 340 nm and emission at 460 nm. The substrate concentration, if not otherwise indicated, was 5 mM 2-PGA. Fluorescence was measured using Omega Fluorescence Plate Reader (BMG Labtech). Alternatively, Enolase activity was measured directly by the appearance of PEP from 2-PGA via absorption at 240 nm (Marangos, et al., 1978). The assay medium was the same, except that all the auxiliary reagents (PK/LDH, NADH, ADP) are omitted. Both assays were conducted in a 96-well plated format with the direct assay performed in UV-transmissible plates.

Broadly, the IC50 is the midpoint of a concentration-inhibition curve. Low readings indicate higher potency, high ones lower potency. On to `O=C1C(P(=O)(O)O)CC(O)N1O` (racemic) [SF2312, 3-dihydroxyphosphoryl-1,5-dihydroxy-2-pyrrolidone], for which the “residual sensitivity to SF2312 relative to that of PhAH after re-expression of ENO2” value in the assay with D423 overexpressing ENO2 was “at least 4 times”. For the same compound, the “thermal stabilization of recombinant ENO2” value at ENO2 [1] was about 15 °C. Also, the “shift of the thermal melting curve of ENO2 in intact glioma cells” value at enolase 2 is about 15 °C. For the same compound, the “shift in the thermal denaturation of ENO2” value on ENO2 [2] (1 μM inhibitor) is > 7.5 °C and 7.5 °C. Moreover, on ENO2 [2] (1 μM, from ~67.5 ° C. without inhibitor), the “melting temperature of ENO2 with inhibitor” value was over 75 °C. Further, the half-inhibitory concentration (IC50) at ENO2 [3] and at human ENO1 was about 20 nM each time. The “potency against ENO2 versus ENO1 (IC50 lower / activity greater for ENO2)” value at ENO2 [3] (ENO2 over ENO1) was 10 fold. Besides, the “inhibition kinetics with respect to substrate 2-PGA” value against ENO2 [3] (SF2312: at IC50) is on record as “non-competitive kinetics”. Besides, the “concentration sufficient to decrease the ratio of 13C Lactate/13C glucose by 70%” value in assay [4] was found to be 6.25 µM.
